Test results reported in PubChem BioAssay (NCI).
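Growth conditions: 96-well plates. Treatment: test compound, 48 hours, 5 concentrations. Analysis: linear interpolation between bracketing concentrations; unreached endpoints set to highest concentration. Here, GI50 denotes the concentration required for 50% inhibition of growth. TGI: concentration producing complete growth inhibition.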

Columns and labels:
Assay in all cases: NCI anticancer screen, dose series, 48 h
[1] = test system: 786-0 renal
[2] = test system: A498 renal
[3] = test system: A549 NSCLC
[4] = test system: ACHN renal
[5] = test system: BT-549 breast
[6] = test system: CAKI-1 renal
[7] = test system: CCRF-CEM leukemia
[8] = test system: COLO 205 colon
[9] = test system: DU-145 prostate
[10] = test system: EKVX NSCLC
[11] = test system: HCC-2998 colon
[12] = test system: HCT-116 colon
[13] = test system: HCT-15 colon
[14] = test system: HL-60(TB) leukemia
[15] = test system: HOP-62 NSCLC
[16] = test system: HOP-92 NSCLC
[17] = test system: HS 578T breast
[18] = test system: HT29 colon
[19] = test system: IGROV1 ovarian
[20] = test system: K-562 leukemia
[21] = test system: KM12 colon
[22] = test system: LOX IMVI melanoma
[23] = test system: M14 melanoma
[24] = test system: MALME-3M melanoma
[25] = test system: MCF7 breast
[26] = test system: MDA-MB-231 breast
[27] = test system: MDA-MB-435
[28] = test system: MOLT-4 leukemia
[29] = test system: NCI-H226 lung
[30] = test system: NCI-H23 lung
[31] = test system: NCI-H460 lung
[32] = test system: NCI-H522 lung
[33] = test system: NCI/ADR-RES ovarian
[34] = test system: OVCAR-4 ovarian
[35] = test system: OVCAR-5 ovarian
[36] = test system: OVCAR-8 ovarian
[37] = test system: PC-3 prostate
[38] = test system: RPMI-8226 leukemia
[39] = test system: RXF 393 renal
[40] = test system: SF-268 CNS
[41] = test system: SF-295 CNS
[42] = test system: SF-539 CNS
[43] = test system: SK-MEL-28 melanoma
[44] = test system: SK-MEL-5 melanoma
[45] = test system: SK-OV-3 ovarian
[46] = test system: SN12C renal
[47] = test system: SNB-19 CNS
[48] = test system: SNB-75 CNS
[49] = test system: SR leukemia
[50] = test system: SW-620 colon
[51] = test system: T-47D breast
[52] = test system: TK-10 renal
[53] = test system: U251 CNS
[54] = test system: UACC-257 melanoma
[55] = test system: UACC-62 melanoma
[56] = test system: UO-31 renal

CC(=O)/C(N=Nc1ccc2oc(=O)ccc2c1)=C(\C)O
GI50 [1]: 5.31 µM
TGI [1]: 17.4 µM
GI50 [2]: 2.34 µM
TGI [2]: 10.4 µM
GI50 [3]: 3.2 µM
TGI [3]: 13.3 µM
GI50 [4]: 0.553 µM
TGI [4]: 11.9 µM
GI50 [5]: 3.12 µM
TGI [5]: 8.52 µM
GI50 [6]: 2.16 µM
TGI [6]: 14.6 µM
GI50 [7]: 1.65 µM
TGI [7]: 13.4 µM
GI50 [8]: 1.76 µM
TGI [8]: 3.39 µM
GI50 [9]: 4.71 µM
TGI [9]: 19 µM
GI50 [10]: 2.72 µM
TGI [10]: 15.1 µM
GI50 [11]: 3.99 µM
TGI [11]: 15.7 µM
GI50 [12]: 2.23 µM
TGI [12]: 12 µM
GI50 [13]: 0.495 µM
TGI [13]: 13.7 µM
GI50 [14]: 1.12 µM
TGI [14]: 9.15 µM
GI50 [15]: 3.62 µM
TGI [15]: 16.3 µM
GI50 [16]: 2.46 µM
TGI [16]: 7.43 µM
GI50 [17]: 3.64 µM
TGI [17]: 19 µM
GI50 [18]: 2.96 µM
TGI [18]: 12.7 µM
GI50 [19]: 2.93 µM
TGI [19]: 16.3 µM
GI50 [20]: 0.528 µM
TGI [20]: 17 µM
GI50 [21]: 3.36 µM
TGI [21]: 13.7 µM
GI50 [22]: 2.92 µM
TGI [22]: 12.4 µM
GI50 [23]: 2.77 µM
TGI [23]: 15.7 µM
GI50 [24]: 3 µM
TGI [24]: 13.6 µM
GI50 [25]: 2.49 µM
TGI [25]: 13 µM
GI50 [26]: 4.77 µM
TGI [26]: 18.1 µM
GI50 [27]: 3.88 µM
TGI [27]: 15.5 µM
GI50 [28]: 2.66 µM
TGI [28]: 12.7 µM
GI50 [29]: 2.48 µM
TGI [29]: 15.2 µM
GI50 [30]: 3.37 µM
TGI [30]: 15.8 µM
GI50 [31]: 2.11 µM
TGI [31]: 12.1 µM
GI50 [32]: 2.12 µM
TGI [32]: 10.8 µM
GI50 [33]: 0.29 µM
TGI [33]: 13.2 µM
GI50 [34]: 3.81 µM
TGI [34]: 18.7 µM
GI50 [35]: 5.04 µM
TGI [35]: 18.4 µM
GI50 [36]: 2.72 µM
TGI [36]: 13.6 µM
GI50 [37]: 2.73 µM
TGI [37]: 12.3 µM
GI50 [38]: 1.89 µM
TGI [38]: 11.4 µM
GI50 [39]: 2.99 µM
TGI [39]: 16.3 µM
GI50 [40]: 5.14 µM
TGI [40]: 21.1 µM
GI50 [41]: 2.22 µM
TGI [41]: 12.7 µM
GI50 [42]: 4.11 µM
TGI [42]: 14.1 µM
GI50 [43]: 4.53 µM
TGI [43]: 16.4 µM
GI50 [44]: 2.09 µM
TGI [44]: 4.92 µM
GI50 [45]: 4.31 µM
TGI [45]: 15.1 µM
GI50 [46]: 2.58 µM
TGI [46]: 14.7 µM
GI50 [47]: 3.39 µM
TGI [47]: 15 µM
GI50 [48]: 5 µM
TGI [48]: 18.6 µM
GI50 [49]: 1.67 µM
TGI [49]: 7.73 µM
GI50 [50]: 3.15 µM
TGI [50]: 13.7 µM
GI50 [51]: 1.84 µM
TGI [51]: 9.19 µM
GI50 [52]: 2.35 µM
TGI [52]: 12.7 µM
GI50 [53]: 2.77 µM
TGI [53]: 12.5 µM
GI50 [54]: 3.36 µM
TGI [54]: 14.8 µM
GI50 [55]: 2.64 µM
TGI [55]: 12.2 µM
GI50 [56]: 0.355 µM
TGI [56]: 11.8 µM
